The source made the active and inactive calls.
Experiments:
Format in all cases: functional, cell-based
HCT-116 [1] = test: Antimigratory activity against human HCT116 cells at 50 uM after 72 hrs
LNCaP [2] = test: Cytotoxicity against human LNCAP cells at 50 uM after 72 hrs
LNCaP [3] = test: Antimigratory activity against human LNCAP cells at 50 uM after 72 hrs
HCT-116 [4] = test: Cytotoxicity against human HCT116 cells at 50 uM after 72 hrs

Measured: Activity

O=C(CCCCCCC(=O)Nc1ccccc1)NO
active: all assays above

Reference: ChEMBL document CHEMBL3108715, “Pan-histone demethylase inhibitors simultaneously targeting Jumonji C and lysine-specific demethylases display high anticancer activities” (J Med Chem, 2014)
